Experimental data as given in patent EP0347459A1, “CEPHALOSPORIN COMPOUNDS OR THEIR SALTS, PROCESS FOR THEIR PREPARATION, AND PHARMACEUTICAL COMPOSITIONS” (TEIJIN LIMITED, priority 1987, dated 1988).
Values after ≈ are worked out from the molar mass of the structure shown. Where two headings read alike, the source gives them in different places.

How the values were obtained:
Assay type in all cases: cell-based
S.pyogenes Cook = test: In vitro antibacterial activity, agar disc dilution method; details: Streptococcus pyogenes, read-out: minimum growth inhibitory concentration (MIC)
Procedure: (§1) An in vitro antibacterial activity was measured by an agar disc dilution method.
(§2) Varied test bacteria were cultivated overnight in triptophane-soybroth. A Mueller Hinton agar containing the compound of this invention in varied concentrations was streaked with one platinum loopful of each of the bacteria (number of living cells 10^6/ml).

P.morganii IFO3445 = test: as above; details: Morganella morganii, read-out: minimum growth inhibitory concentration (MIC)
Procedure: as §1, §2

P.vulgalis OX-11 = test: as above; details: read-out: minimum growth inhibitory concentration (MIC)
Procedure: as §1, §2

S.typhi 901 = test: as above; details: Salmonella enterica, 16 h, read-out: minimum growth inhibitory concentration (MIC)
Procedure: as §1, §2

E.cloacae 963 = test: as above; details: read-out: minimum growth inhibitory concentration (MIC)
Procedure: as §1, §2

K.pneumoniae PCI602 = test: as above; details: Klebsiella pneumoniae, read-out: minimum growth inhibitory concentration (MIC)
Procedure: as §1, §2

S.aureus 209p NIHJ JC1 = test: as above; details: Staphylococcus aureus, read-out: minimum growth inhibitory concentration (MIC)
Procedure: as §1, §2

P.aeruginosa PAD1 = test: as above; details: Pseudomonas aeruginosa, read-out: minimum growth inhibitory concentration (MIC)
Procedure: as §1, §2

S.enteritidis G14 = test: as above; details: Salmonella enterica, read-out: minimum growth inhibitory concentration (MIC)
Procedure: as §1, §2

M.luteus ATCC9341 = test: as above; details: Micrococcus luteus, read-out: minimum growth inhibitory concentration (MIC)
Procedure: as §1, §2

P.aeruginosa IFO3445 = test: as above; details: Pseudomonas aeruginosa, read-out: minimum growth inhibitory concentration (MIC)
Procedure: as §1, §2

S. aureus Terajima = test: as above; details: Staphylococcus aureus, read-out: minimum growth inhibitory concentration (MIC)
Procedure: as §1, §2

S.marcescens IAM1184 = test: as above; details: Serratia marcescens, read-out: minimum growth inhibitory concentration (MIC)
Procedure: as §1, §2

P.aeruginosa NCTC1049 = test: as above; details: Pseudomonas aeruginosa, read-out: minimum growth inhibitory concentration (MIC)
Procedure: as §1, §2

P.aeruginosa 0-11 = test: MIC values of 10 kinds of Pseudomonas aeruginosa; details: Pseudomonas aeruginosa, 011, 16 h, read-out: MIC values
Procedure: as §1, §2
(§3) MIC values of 10 kinds of Pseudomonas aeruginosa were measured for Compound III, Comparative Example B and CAZ.

P.aeruginosa N-3 = test: MIC values of 10 kinds of Pseudomonas aeruginosa; details: N3, 16 h, read-out: MIC values
Procedure: as §1, §2, §3

P.aeruginosa Tid53 = test: MIC values of 10 kinds of Pseudomonas aeruginosa; details: TID53, 16 h, read-out: MIC values
Procedure: as §1, §2, §3

P.aeruginosa ATCC27318 = test: MIC values of 10 kinds of Pseudomonas aeruginosa; details: ATCC27318, 16 h, read-out: MIC values
Procedure: as §1, §2, §3

P.aeruginosa N-26 = test: MIC values of 10 kinds of Pseudomonas aeruginosa; details: N26, 16 h, read-out: MIC values
Procedure: as §1, §2, §3

P.aeruginosa 64 = test: MIC values of 10 kinds of Pseudomonas aeruginosa; details: Pseudomonas aeruginosa, 64, 16 h, read-out: MIC values
Procedure: as §1, §2, §3

P.aeruginosa 88 = test: MIC values of 10 kinds of Pseudomonas aeruginosa; details: Pseudomonas aeruginosa, 88, 16 h, read-out: MIC values
Procedure: as §1, §2, §3

P.aeruginosa NO. 97 = test: MIC values of 10 kinds of Pseudomonas aeruginosa; details: NO.97, 16 h, read-out: MIC values
Procedure: as §1, §2, §3

P.aeruginosa ATCC27577 = test: MIC values of 10 kinds of Pseudomonas aeruginosa; details: ATCC27577, 16 h, read-out: MIC values
Procedure: as §1, §2, §3

P.aeruginosa N-2 = test: MIC values of 10 kinds of Pseudomonas aeruginosa; details: N2, 16 h, read-out: MIC values
Procedure: as §1, §2, §3

[1] = S.pyogenes Cook, Mueller Hinton agar, 10^6/ml, 37°C for 16 hours
[2] = P.morganii IFO3445, Mueller Hinton agar, 10^6/ml, 37°C for 16 hours
[3] = P.vulgalis OX-11, Mueller Hinton agar, 10^6/ml, 37°C for 16 hours
[4] = Enterobacter cloacae, E.cloacae 963, Mueller Hinton agar, 10^6/ml, 37°C for 16 hours
[5] = K.pneumoniae PCI602, Mueller Hinton agar, 10^6/ml, 37°C for 16 hours
[6] = S.aureus 209p NIHJ JC1, Mueller Hinton agar, 10^6/ml, 37°C for 16 hours
[7] = P.aeruginosa PAD1, Mueller Hinton agar, 10^6/ml, 37°C for 16 hours
[8] = S.enteritidis G14, Mueller Hinton agar, 10^6/ml, 37°C for 16 hours
[9] = M.luteus ATCC9341, Mueller Hinton agar, 10^6/ml, 37°C for 16 hours
[10] = P.aeruginosa IFO3445, Mueller Hinton agar, 10^6/ml, 37°C for 16 hours
[11] = S. aureus Terajima, Mueller Hinton agar, 10^6/ml, 37°C for 16 hours
[12] = S.marcescens IAM1184, Mueller Hinton agar, 10^6/ml, 37°C for 16 hours
[13] = P.aeruginosa NCTC1049, Mueller Hinton agar, 10^6/ml, 37°C for 16 hours

Work on `CON=C(C(=O)NC1C(=O)N2C(C(=O)[O-])=C(C[n+]3ccc4cc(O)c(O)cc4c3)CSC12)c1nsc(N)n1` [Compound I, (6R,7R)-7-[(Z)-2-(5-amino-1,2,4-thiadiazol-3-yl-2-methoxyimino)acetamide]-3-(6,7-dihydroxy-2-isoquinolinium)methyl-3-cephem-4-carboxylate] yielded an MIC (S.pyogenes Cook; [1]) of 0.05 µg/mL (≈ 0.0897 µM), an MIC (P.morganii IFO3445; [2]) of 0.005 µg/mL (≈ 0.00897 µM) and an MIC (P.vulgalis OX-11; [3]) of 0.005 µg/mL (≈ 0.00897 µM). For the same compound, the MIC (S.typhi 901) was 0.005 µg/mL (≈ 0.00897 µM), the MIC (E.cloacae 963; [4]) was 0.005 µg/mL (≈ 0.00897 µM) and the MIC (K.pneumoniae PCI602; [5]) was 0.005 µg/mL (≈ 0.00897 µM). The MIC (S.aureus 209p NIHJ JC1; [6]) was 1.6 µg/mL (≈ 2.87 µM), the MIC (P.aeruginosa PAD1; [7]) was 12.5 µg/mL (≈ 22.4 µM) and the MIC (S.enteritidis G14; [8]) was 0.005 µg/mL (≈ 0.00897 µM). The MIC (M.luteus ATCC9341; [9]) was 0.1 µg/mL (≈ 0.179 µM), the MIC (P.aeruginosa IFO3445; [10]) was 12.5 µg/mL (≈ 22.4 µM) and the MIC (S. aureus Terajima; [11]) was 1.6 µg/mL (≈ 2.87 µM). It also gave an MIC (S.marcescens IAM1184; [12]) of 0.005 µg/mL (≈ 0.00897 µM) and an MIC (P.aeruginosa NCTC1049; [13]) of 0.2 µg/mL (≈ 0.359 µM).

`CC(C)(O/N=C(\C(=O)N[C@@H]1C(=O)N2C(C(=O)[O-])=C(C[n+]3ccccc3)CS[C@H]12)c1csc(N)n1)C(=O)O` [CAZ, (6R,7R)-7-[(Z)-2-(2-amino-1,3-thiazol-4-yl)-2-(2-carbcxypropyl-2-yloxyimino)acetamide]-3-(l-pyridinium)methyl-3-cephem-4-carboxylate, reference compound] showed an MIC (S.pyogenes Cook; 16 h) of 0.4 µg/mL (≈ 0.732 µM), an MIC (P.morganii IFO3445; IFO3445, 16 h) of 0.0125 µg/mL (≈ 0.0229 µM) and an MIC (P.vulgalis OX-11; 16 h) of 0.005 µg/mL (≈ 0.00915 µM). For the same compound, the MIC (S.typhi 901) was 0.1 µg/mL (≈ 0.183 µM), the MIC (E.cloacae 963; Enterobacter cloacae, 963, 16 h) was 0.05 µg/mL (≈ 0.0915 µM) and the MIC (K.pneumoniae PCI602; PCI602, 16 h) was 0.025 µg/mL (≈ 0.0457 µM). The MIC (S.aureus 209p NIHJ JC1; 16 h) was 6.3 µg/mL (≈ 11.5 µM), the MIC (P.aeruginosa PAD1; PAD1, 16 h) was 0.4 µg/mL (≈ 0.732 µM) and the MIC (S.enteritidis G14; ENTERITIDIS, 16 h) was 0.005 µg/mL (≈ 0.00915 µM). For the same compound, the MIC (M.luteus ATCC9341; ATCC9341, 16 h) was 0.4 µg/mL (≈ 0.732 µM), the MIC (P.aeruginosa IFO3445; IFO3445, 16 h) was 0.4 µg/mL (≈ 0.732 µM) and the MIC (S. aureus Terajima; 16 h) was 1.6 µg/mL (≈ 2.93 µM). The MIC (S.marcescens IAM1184; IAM1184, 16 h) was 0.025 µg/mL (≈ 0.0457 µM), the MIC (P.aeruginosa NCTC1049; NCTC1049, 16 h) was 0.4 µg/mL (≈ 0.732 µM) and the MIC (P.aeruginosa 0-11) was 3.1 µg/mL (≈ 5.67 µM). The MIC (P.aeruginosa N-3) was 1.6 µg/mL (≈ 2.93 µM), the MIC (P.aeruginosa Tid53) was 6.3 µg/mL (≈ 11.5 µM) and the MIC (P.aeruginosa ATCC27318) was 1.6 µg/mL (≈ 2.93 µM). For the same compound, the MIC (P.aeruginosa N-26) was 1.6 µg/mL (≈ 2.93 µM), the MIC (P.aeruginosa 64) was 3.1 µg/mL (≈ 5.67 µM) and the MIC (P.aeruginosa 88) was 0.8 µg/mL (≈ 1.46 µM). The MIC (P.aeruginosa NO. 97) was 3.1 µg/mL (≈ 5.67 µM), the MIC (P.aeruginosa ATCC27577) was 0.2 µg/mL (≈ 0.366 µM) and the MIC (P.aeruginosa N-2) was 0.8 µg/mL (≈ 1.46 µM).

For `Nc1nc(C(=NOCC(=O)O)C(=O)NC2C(=O)N3C(C(=O)[O-])=C(C[n+]4ccc5cc(O)c(O)cc5c4)CSC23)ns1` [Compound II, (6R,7R)-7-[(Z)-5-amino-1,2,4-thiadiazol-3-yl)-2-(carboxymethoxyimino)acetamidel-3-(6,7-dihydroxy-2-isoquinolinium)methyl-3-cephem-4-carboxylate], the MIC (S.pyogenes Cook; [1]) was 0.2 µg/mL (≈ 0.332 µM), the MIC (P.morganii IFO3445; [2]) was 0.005 µg/mL (≈ 0.00831 µM) and the MIC (P.vulgalis OX-11; [3]) was 0.005 µg/mL (≈ 0.00831 µM). The MIC (S.typhi 901) was 0.005 µg/mL (≈ 0.00831 µM), the MIC (E.cloacae 963; [4]) was 0.005 µg/mL (≈ 0.00831 µM) and the MIC (K.pneumoniae PCI602; [5]) was 0.005 µg/mL (≈ 0.00831 µM). It also gave an MIC (S.aureus 209p NIHJ JC1; [6]) of 12.5 µg/mL (≈ 20.8 µM), an MIC (P.aeruginosa PAD1; [7]) of 0.025 µg/mL (≈ 0.0416 µM) and an MIC (S.enteritidis G14; [8]) of 0.005 µg/mL (≈ 0.00831 µM). For the same compound, the MIC (M.luteus ATCC9341; [9]) was 1.6 µg/mL (≈ 2.66 µM), the MIC (P.aeruginosa IFO3445; [10]) was 0.05 µg/mL (≈ 0.0831 µM) and the MIC (S. aureus Terajima; [11]) was 3.1 µg/mL (≈ 5.15 µM). For the same compound, the MIC (S.marcescens IAM1184; [12]) was 0.005 µg/mL (≈ 0.00831 µM) and the MIC (P.aeruginosa NCTC1049; [13]) was 0.0125 µg/mL (≈ 0.0208 µM).
